# According to US4129565A, “Isocarbostyril derivatives” (priority 1975, dated 1978):
# Counter-ions that a name gives are not always drawn.
# Key:
# [1] = molecular target: T1, isolated guinea-pig atria (β1) (Cavia porcellus, UniProt H0W3H1); assay: β-adrenergic blocking effect: antagonism of isoproterenol stimulation in isolated guinea-pig atria
# T1 construct: isolated guinea-pig atria; from tissue; host or cells: isolated guinea-pig atria
# [2] = molecular target: T2, isolated guinea-pig tracheas (β2) (Cavia porcellus, UniProt Q8K4Z4); assay: β-adrenergic blocking effect: antagonism of isoproterenol stimulation in isolated guinea-pig tracheas
# T2 construct: isolated guinea-pig tracheas; from tissue; host or cells: isolated guinea-pig tracheas
# [3] = system: reserpine-treated anaesthetized rats; assay: Intrinsic heart stimulating effect in reserpine-treated anaesthetized rats; assay type: in vivo, rat
# Method: Intrinsic heart stimulating effects of the compounds of the invention were also determined using reserpine-treated anaesthetized rats.
# [4] = in vivo; conditions: mouse, iv
# Method: With respect to acute toxicity of the isocarbostyril derivatives of the general formula (I), experiments were carried out to obtain the LD50 values of the compounds.
# T1 sequence (H0W3H1 1-470): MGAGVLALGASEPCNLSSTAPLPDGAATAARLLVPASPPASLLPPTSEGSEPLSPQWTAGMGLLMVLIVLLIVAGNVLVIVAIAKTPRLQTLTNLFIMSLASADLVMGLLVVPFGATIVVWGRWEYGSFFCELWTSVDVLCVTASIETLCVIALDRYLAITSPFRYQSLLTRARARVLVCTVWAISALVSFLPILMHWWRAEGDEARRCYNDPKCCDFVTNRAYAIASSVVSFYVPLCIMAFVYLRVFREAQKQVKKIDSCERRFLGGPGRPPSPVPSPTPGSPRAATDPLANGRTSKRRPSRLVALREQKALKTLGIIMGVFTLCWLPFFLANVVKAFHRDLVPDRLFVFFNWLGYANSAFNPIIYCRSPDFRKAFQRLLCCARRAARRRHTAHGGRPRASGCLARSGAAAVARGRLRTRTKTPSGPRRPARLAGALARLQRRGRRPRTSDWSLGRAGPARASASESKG
# T2 sequence (Q8K4Z4 whole entry): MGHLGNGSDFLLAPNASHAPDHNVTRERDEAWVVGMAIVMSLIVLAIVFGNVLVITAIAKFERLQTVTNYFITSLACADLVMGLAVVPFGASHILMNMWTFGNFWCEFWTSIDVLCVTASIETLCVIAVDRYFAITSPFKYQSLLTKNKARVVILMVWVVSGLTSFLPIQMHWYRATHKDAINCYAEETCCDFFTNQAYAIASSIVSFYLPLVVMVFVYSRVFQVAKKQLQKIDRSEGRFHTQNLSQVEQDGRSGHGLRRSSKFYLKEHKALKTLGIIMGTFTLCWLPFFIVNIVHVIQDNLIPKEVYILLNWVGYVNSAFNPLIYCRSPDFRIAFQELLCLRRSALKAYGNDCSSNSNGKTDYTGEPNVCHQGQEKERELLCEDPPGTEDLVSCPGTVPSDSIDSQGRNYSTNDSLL
Compound,β-adrenergic blocking activity (Relative potency) atria (β1) [1],β-adrenergic blocking activity (Relative potency) trachea (β2) [2],Intrinsic heart stimulation [3],LD50 [4] [mg/kg]
"CC(C)NCC(O)COc1cn(C)c(=O)c2ccccc12 (stereo not drawn) [Example 1, 4-(3-isopropylamino-2-hydroxy)propoxy-2-methylisocarbostyrilhydrochloride]",3.2,0.44,0,105
"Cn1cc(OCC(O)CNC(C)(C)C)c2ccccc2c1=O (stereo not drawn) [Example 2, 4-(3-tert.-butylamino-2-hydroxy)propoxy-2-methylisocarbostyril hydrochloride]",2.5,0.52,0,119
"CCC(C)NCC(O)COc1cn(C)c(=O)c2ccccc12 (stereo not drawn) [Example 3, 4-(3-sec.-butylamino-2-hydroxy)propoxy-2-methyl isocarbostyril hydrochloride]",4.5,0.05,0,120
"Cn1cc(OCC(O)CNCc2ccccc2)c2ccccc2c1=O (stereo not drawn) [Example 7, 4-(3-benzylamino-2-hydroxy)propoxy-2-methylisocarbostyril hydrochloride]",–,–,–,120
"Cn1cc(OCC(O)CNC2CCCCC2)c2ccccc2c1=O (stereo not drawn) [Example 8, 4-(3-cyclohexylamino-2-hydroxy)propoxy-2-methylisocarbostyril hydrochlorid]",–,–,–,80
"Cn1cc(OCC(O)CN2CCCCC2)c2ccccc2c1=O (stereo not drawn) [Example 9, 4-(3-piperidino-2-hydroxy)propoxy-2-methylisocarbostyril hydrochloride]",–,–,–,200
"CCCCN(C)CC(O)COc1cn(C)c(=O)c2ccccc12 (stereo not drawn) [Example 11, 4-(3-N-methyl-butylamino-2-hydroxy) propoxy-2-methyl isocarbostyril]",–,–,–,143
"CN1CCN(CC(O)COc2cn(C)c(=O)c3ccccc23)CC1 (stereo not drawn) [Example 12, 4-(3-N-methylpiperazino-2-hydroxy) propoxy-2-methyl isocarbostyril]",–,–,–,270
"CC[N+](C)(CC)CC(O)COc1cn(C)c(=O)c2ccccc12 (stereo not drawn) [Example 13, 4-(3-diethylamino-2-hydroxy)propoxy-2-methyl isocarbostyril methoiodide]",–,–,–,15.2
CC(C)[N+](C)(C)CC(O)COc1cn(C)c(=O)c2ccccc12 (stereo not drawn) [Example 14],–,–,–,< 20
"CC[N+](C)(C)CC(O)COc1cn(C)c(=O)c2ccccc12 (stereo not drawn) [Example 15, 4-(3-dimethylamino-2-hydroxy)propoxy-2-methyl isocarbostyril ethoiodide]",–,–,–,16.7
"CC(C)NCC(O)COc1cccc2ccccc12 (stereo not drawn) [Propranolol, propranolol, reference compound]",–,–,0,–
"CCCNCC(O)COc1cn(C)c(=O)c2ccccc12 (stereo not drawn) [R3=H, R4=n-C3 H7]",–,–,–,115
"CCCCNCC(O)COc1cn(C)c(=O)c2ccccc12 (stereo not drawn) [R3=H, R4=n-C4 H9]",–,–,–,105
"CCCCCCNCC(O)COc1cn(C)c(=O)c2ccccc12 (stereo not drawn) [R3=H, R4=n-C6 H13]",–,–,–,69
